What was measured:
[1] = tested on: primary human keratinocytes (PHK); assay: Paracellular fluorescein flux (permeability) in cultured primary human keratinocytes; format: cell-based; settings: histamine 100 μM, P<0.001, n=9, 96 hrs, FIG. 2B
Method: (§1) PHK were cultured in Keratinocyte-SFM (Invitrogen/Gibco, Grand Island, N.Y.) with 5 ng/ml human recombinant Epidermal Growth Factor 1-53 (EGF 1-53), 50 μg/ml Bovine Pituitary Extract (BEP), 1% Pen/Strep, and 0.2% Amphotericin B (Invitrogen/Gibco). To induce terminal differentiation PHK were grown in DMEM (Invitrogen/Gibco) with 1% Pen/Strep and 0.2% Amphotericin B (Invitrogen/Gibco). Where it is indicated, 10% heat-inactivated bovine serum (Invitrogen) was added to the differentiation media. […] Briefly, TEER was measured using an EVOMX voltohmmeter (World Precision Instruments, Sarasota, Fla.). To evaluate the paracellular flux of PHK, 0.02% Fluorescein (FITC) Sodium (Fluka, St. Louis, Mo.) in PBS (Invitrogen/Gibco) was added to the upper chamber. Samples were collected from the lower chamber after 30 minutes incubation for PHK culture or 10 and 20 minutes for skin explant. For each experiment paracellular flux was normalized to an empty filter. […] TJ integrity was assessed by trans-epithelial electrical resistance (TEER) and paracellular fluorescein flux (permeability).

airway epithelial cells = settings: cited from earlier work
human skin explant = settings: ex-vivo epidermal explants, histamine 100 μM, 24 hr, P<0.05, n=3
Method: Briefly, TEER was measured using an EVOMX voltohmmeter (World Precision Instruments, Sarasota, Fla.). To evaluate the paracellular flux of PHK, 0.02% Fluorescein (FITC) Sodium (Fluka, St. Louis, Mo.) in PBS (Invitrogen/Gibco) was added to the upper chamber. Samples were collected from the lower chamber after 30 minutes incubation for PHK culture or 10 and 20 minutes for skin explant. For each experiment paracellular flux was normalized to an empty filter.
Skin samples were mounted on filter supports (Whatman Nuclepore Track-Etch Membrane; GE Healthcare Biosciences, Pittsburgh, Pa.) with the epidermal side oriented upward, and sandwiched between two sterile custom made Plexiglas discs with an opening of 3 mm and placed in modified Snapwell™ chambers (Corning, Corning, N.Y., USA). Samples were submerged in DMEM media and kept at 37° C., 5% CO2 for 30 min. Fresh media with histamine (10 or 100 μM) or media alone were then added to both sides of the transwell. TEER and Paracellular flux of fluorescein of skin explant were measured at 24 hr.

human keratinocytes = settings: cited from earlier work
[2] = tested on: primary human keratinocytes (PHK); assay: Transepithelial electric resistance (TEER) in cultured primary human keratinocytes; format: cell-based
Method: as §1

ZO-1 = settings: nasal and retinal epithelial cells, cited from earlier work
pro-Filaggrin (pro-FLG) = settings: FIG. 6
Method: Human keratinocytes were isolated from neonatal foreskin as previously described (Poumay et al., “Basal Detachment of the Epidermis Using Dispase: Tissue Spatial Organization and Fate of Integrin alpha 6 beta 4 and Hemidesmosomes,” J Invest Dermatol 102:111-7 (1994), which is hereby incorporated by reference in its entirety). PHK were cultured in Keratinocyte-SFM (Invitrogen/Gibco, Grand Island, N.Y.) with 5 ng/ml human recombinant Epidermal Growth Factor 1-53 (EGF 1-53), 50 μg/ml Bovine Pituitary Extract (BEP), 1% Pen/Strep, and 0.2% Amphotericin B (Invitrogen/Gibco). To induce terminal differentiation PHK were grown in DMEM (Invitrogen/Gibco) with 1% Pen/Strep and 0.2% Amphotericin B (Invitrogen/Gibco). Where it is indicated, 10% heat-inactivated bovine serum (Invitrogen) was added to the differentiation media. […] The protein concentration of all samples was determined by BCA (Pierce). […] TJ integrity was assessed by trans-epithelial electrical resistance (TEER) and paracellular fluorescein flux (permeability). […] Keratinocyte differentiation was assessed by examining filaggrin, loricrin and keratin 10 expression by Western blot. Expression of HRs were evaluated by qPCR in skin biopsies taken from lesional and nonlesional sites in AD subjects (n=6-8) and non-atopics (n=10).

NCCc1c[nH]cn1 [histamine]
Permeability to Fluorescein, Mean Fold of control (FOC) [1]: enhancement of permeability | TJ paracellular permeability (airway epithelial cells): enhance TJ paracellular permeability | Fluorescein permeability flux, Fold of control (FOC) (human skin explant; 20 minutes time point, FIG. 3B): 1.3 fold | TEER, Fold of control (FOC) (human skin explant; FIG. 3A): 0.7 fold | Expression of stratum corneum and granulosum barrier proteins (e.g. filaggrin, Loricrin, claudin1, occludin) (human keratinocytes): reduced the expression | TEER peak ([2]; PHK differentiated in DMEM serum free media, histamine 100 μM, 96 hours post-stimulation, n=4, FIG. 2C): significantly reduced TEER peak | TEER, Mean Area under the curve (AUC) ([2]; PHK, histamine 10 and 100 μM, P<0.001, n=10, AUC of 0-120 h time points, FIG. 2A): dose dependent reduction of TEER | Expression of ZO-1 (ZO-1): reduce the expression | pro-FLG expression (pro-Filaggrin (pro-FLG); PHK at day 5 post differentiation, 100 μM histamine, Western blot, n=4): significantly reduced

COc1ccc(CN(CCN(C)C)c2ccccn2)cc1 [mepyriamine]
Abrogation of histamine effect on ZO-1 expression (ZO-1; pretreatment with antagonist): at least partially abrogated

O=C(O)COCCN1CCN(C(c2ccccc2)c2ccc(Cl)cc2)CC1 (centres unmarked) [Cetirizine]
Prevention of histamine-mediated reduction of pro-FLG expression (pro-Filaggrin (pro-FLG); PHK co-treated with 100 μM histamine and 10 μM Cetirizine): prevented
